Series [1] is described as follows: Study EYP001-202 Phase 2a in NASH patients: pruritus intensity on Visual Analog Scale, safety and tolerance. Type of series: in vivo, human. The method, then: Values are AUC least square means (error bars=SE). AUC=area under the concentration-time curve; BID=twice daily; QD=once daily. * p<0.05 versus Placebo.
(§1) EYP001a is an investigational agonist of the FXR, a key regulator of bile, lipid, and glucose metabolism. […] Study EYP001-202 is a Phase 2a, 2-part study conducted to determine the efficacy and safety profiles of different doses and dosing regimens of EYP001 (100 mg twice daily [BID] and 200 mg once daily [QD]) versus placebo on LFC (liver fat content) from baseline to Week 12 in patients with NASH. An interim analysis on 24 patients enrolled in Part A Safety Run-in Cohort focused on safety, tolerance and key efficacy results.
VAS (Visual Analog Score) results were the followings: 100 mg BID group (mean change from baseline ranged from 3.34 on Day 7 to 6.84 on Day 21), and the 200 mg QD group (mean change from baseline ranged from 3.03 on Day 28 to 3.47 on Day 56).
The efficacy was shown with a significant, clinically relevant LFC reduction from baseline. However, tolerance was affected due to pruritus events causing premature terminations. The BID regimen less well tolerated compared to QD regimen. In addition, a higher efficacy is associated to the QD regimen in comparison to the BID.

Series [2] has as its system HBV (plasma HBsAg). As to the kind of experiment: Plasma HBsAg change from baseline in patients with chronic Hepatitis B infection, 4 weeks. Type of series: in vivo, human. The note with it: 400 mg QD vs 200 mg BID, chronic Hepatitis B patients (FIG. 3). The method, then:
FIG. 3: Plasma HBsAg (Log 10 IU/mL) change from baseline in patients with chronic Hepatitis B infection. Patients received during 4 weeks either Placebo (n=8), EYP001 200 mg BID (n=8) or EYP001 400 mg QD (n=8). Values expressed as mean; error bar is SD. * p<0.05 vs baseline.
Patients chronically infected with HBV underwent a 4-week treatment as either daily oral FXR agonist EYP001 monotherapy or placebo or entecavir (ETV) in Part A of the study (n=48) or in combination with IFN (Part B, n=23, weekly sub-cutaneous injections of pegylated IFNα2a, PEG-IFN). Overall 15 (30%) patients developed pruritus related to EYP001, a well-known TEAE with FXR agonist, the mechanism of which however is poorly understood.

For series [3] the following is noted: human, in vivo.
Series [4] in a line: NASH rodent model. Type of series: in vivo.
A short description of series [5]: Study EYP001-202 Phase 2a in NASH patients: liver fat content (LFC) change from baseline to Week 12 by MRI-PDFF. Type of series: in vivo, human. On the procedure:
FIG. 2: Absolute Liver Fat Content Change (%) from baseline assessed by MRI-PDFF in NASH patients treated during 12 weeks with EYP001 100 mg BID (n=4) or EYP001 200 mg QD (n=3) or Placebo (n=5). Values expressed as means; error bar is SE. #p=0.07 vs baseline. The ------- line corresponds to a 5% clinical meaningful reduction. Analysis of covariance (ANCOVA) model with change from baseline as the dependent variable and baseline Liver Fat Content as a covariate and treatment (pooled EYP001 and Placebo BID) and stratification factors—statin use and T2DM status at screening as factors.
as §1
The primary efficacy endpoint of LFC reduction was met.

The conditions of series [6]: clinical trials of obeticholic acid (PBC, NASH); cited from earlier work.

Here are results for two compounds from patent publication US12551480B2, “Treatment using EYP001” (ENYO PHARMA, priority 2019, dated 2026).

As to `O=C(O)c1cc2c(Cl)c(N3CCN(S(=O)(=O)c4c(Cl)cccc4Cl)CC3)ccc2o1` [EYP001], in series [1] (NASH patients, 200 mg QD vs 100 mg BID (FIG. 1)), the “tolerance in VAS analysis (AUC over 12 weeks)” value is listed as “better tolerance”. Moreover, the “serious AEs” value in series [1] (male and female F2-F3 NASH patients, 100 mg BID and 200 mg QD) is reported as “no serious AEs”. In series [2], the “plasma HBsAg change from baseline, efficacy of regimens compared” value is on record as “better efficacy”. Besides, in series [3], the “frequency of pruritus with QD dosing compared to BID regimens” value is on record as “up to four times less frequent pruritus”. In series [3] (4 weeks), the “any of above Pruritus related MEDRA (% of patients)” value is 27%, the “n = any of above Pruritus related MEDRA (number of patients)” value was 9, the “none of above (% of patients without pruritus)” value was determined as 73% and the “none of above (number of patients without pruritus)” value was 24. Moreover, in series [3] (4 weeks), the “patients who developed pruritus related to EYP001 (%)” value came to 30% and the “patients who developed pruritus related to EYP001 (number)” value is recorded as 15. Moreover, in series [4], the “effect on liver steatosis, inflammation, apoptosis and fibrosis” value was “reduced liver steatosis, inflammation, apoptosis, and fibrosis”. In addition, the “LFC reduction, regimens compared” value in series [5] (200 mg QD group compared to 100 mg BID group, 12 weeks (FIG. 2)) is “more pronounced effect”. Besides, in series [5] (EYP001 groups pooled (100 mg BID and 200 mg QD), baseline to Week 12, p=0.04, absolute LFC change (%) by MRI-PDFF), the “LFC reduction, difference from placebo” value stood at 8.62.
Turning to `CC[C@H]1[C@@H](O)[C@@H]2[C@H](CC[C@]3(C)[C@@H]([C@H](C)CCC(=O)O)CC[C@@H]23)[C@@]2(C)CC[C@@H](O)C[C@@H]12` [obeticholic acid], the pruritus rates entry in series [6] is “up to 51%”.
